Source: ChEMBL document CHEMBL6153107, “Derailment of the Biosynthesis via an Acid-Mediated Intramolecular Cyclo-rearrangement Leads to a Novel Cytochalasin Skeleton” (J Nat Prod, 2025)
Activity calls are given as the source filed them. The rule behind the calls is not given here.

Columns and labels:
HeLa [1] = assay: Cytotoxicity against human HeLa cells assessed as inhibition of cell growth incubated for 48 hrs by DAPI staining based high-content imaging analysis; assay type: functional
RKO [2] = assay: Cytotoxicity against human RKO cells assessed as inhibition of cell growth incubated for 48 hrs by DAPI staining based high-content imaging analysis; assay type: functional
HeLa [3] = assay: Binding affinity to F-actin in human HeLa cells assessed as disruption of cytoskeleton organization by measuring transforming regular fibrous into punctuate structure at 27.8 uM incubated for 48 hrs by tetramethylrhodamine-phalloidin staining based confocal laser scanning microscopy; assay type: cell-based
RKO [4] = assay: Binding affinity to F-actin in human RKO cells assessed as disruption of cytoskeleton organization by measuring transforming regular fibrous into punctuate structure at 16.7 uM incubated for 48 hrs by tetramethylrhodamine-phalloidin staining based confocal laser scanning microscopy; assay type: cell-based
HeLa [5] = assay: Induction of cell cycle arrest in human HeLa cells assessed as accumulation of cells G2/M phase incubated for 48 hrs by DAPI staining based high-content imaging analysis; assay type: functional
RKO [6] = assay: Induction of cell cycle arrest in human RKO cells assessed as accumulation of cells at G2/M phase incubated for 48 hrs by DAPI staining based high-content imaging analysis; assay type: functional
HeLa [7] = assay: Binding affinity to F-actin in human HeLa cells assessed as disruption of cytoskeleton organization by measuring transforming regular fibrous into punctuate structure at 2 uM incubated for 48 hrs by tetramethylrhodamine-phalloidin staining based confocal laser scanning microscopy; assay type: cell-based
RKO [8] = assay: Binding affinity to F-actin in human RKO cells assessed as disruption of cytoskeleton organization by measuring transforming regular fibrous into punctuate structure at 1.6 uM incubated for 48 hrs by tetramethylrhodamine-phalloidin staining based confocal laser scanning microscopy; assay type: cell-based
HeLa [9] = assay: Binding affinity to F-actin in human HeLa cells assessed as disruption of cytoskeleton organization by measuring transforming regular fibrous into punctuate structure at 0.9 uM incubated for 48 hrs by tetramethylrhodamine-phalloidin staining based confocal laser scanning microscopy; assay type: cell-based
RKO [10] = assay: Binding affinity to F-actin in human RKO cells assessed as disruption of cytoskeleton organization by measuring transforming regular fibrous into punctuate structure at 0.8 uM incubated for 48 hrs by tetramethylrhodamine-phalloidin staining based confocal laser scanning microscopy; assay type: cell-based
HeLa [11] = assay: Binding affinity to F-actin in human HeLa cells assessed as disruption of cytoskeleton organization by measuring transforming regular fibrous into punctuate structure at 50 uM incubated for 48 hrs by tetramethylrhodamine-phalloidin staining based confocal laser scanning microscopy; assay type: cell-based
RKO [12] = assay: Binding affinity to F-actin in human RKO cells assessed as disruption of cytoskeleton organization by measuring transforming regular fibrous into punctuate structure at 33.5 uM incubated for 48 hrs by tetramethylrhodamine-phalloidin staining based confocal laser scanning microscopy; assay type: cell-based
HeLa [13] = assay: Binding affinity to F-actin in human HeLa cells assessed as disruption of cytoskeleton organization by measuring transforming regular fibrous into punctuate structure at 12.3 uM incubated for 48 hrs by tetramethylrhodamine-phalloidin staining based confocal laser scanning microscopy; assay type: cell-based
RKO [14] = assay: Binding affinity to F-actin in human RKO cells assessed as disruption of cytoskeleton organization by measuring transforming regular fibrous into punctuate structure at 11.1 uM incubated for 48 hrs by tetramethylrhodamine-phalloidin staining based confocal laser scanning microscopy; assay type: cell-based
RKO [15] = assay: Binding affinity to F-actin in human RKO cells assessed as disruption of cytoskeleton organization by measuring transforming regular fibrous into punctuate structure at 50 uM incubated for 48 hrs by tetramethylrhodamine-phalloidin staining based confocal laser scanning microscopy; assay type: cell-based

SMILES	IC50 (HeLa [1]) [µM]	IC50 (RKO [2]) [µM]	Activity (HeLa [3])	Activity (RKO [4])	Activity (HeLa [5])	Activity (RKO [6])	Activity (HeLa [7])	Activity (RKO [8])	Activity (HeLa [9])	Activity (RKO [10])	Activity (HeLa [11])	Activity (RKO [12])	Activity (HeLa [13])	Activity (RKO [14])	Activity (RKO [15])
CC1=C[C@H]2[C@H]3OC(=O)[C@@]24C(=N[C@@H](Cc2ccccc2)[C@@H]4[C@@H]1C)C[C@H]1[C@H]3C[C@H](C)C[C@@]1(C)O	27.8	16.7	Active	Active	Dose-dependent-effect	Dose-dependent-effect									
CC1=C[C@@H]2/C=C/C[C@H](C)C[C@@](C)(O)/C=C/C(=O)[C@]23C(=O)N[C@@H](Cc2ccccc2)[C@@H]3[C@@H]1C	2	1.6			Dose-dependent-effect	Dose-dependent-effect	Active	Active							
C=C1[C@@H](C)[C@H]2[C@H](Cc3ccccc3)NC(=O)[C@]23[C@H](OC(C)=O)/C=C/[C@](C)(O)C[C@@H](C)C/C=C/[C@H]3[C@@H]1O	0.9	0.8			Dose-dependent-effect	Dose-dependent-effect			Active	Active					
CC1=C[C@@H]2/C=C/C[C@H](C)C[C@@](C)(O)/C=C/[C@@H](O)[C@]23C(=O)N[C@@H](Cc2ccccc2)[C@@H]3[C@@H]1C	> 50	33.5			Dose-dependent-effect	Dose-dependent-effect					Active	Active			
CC(=O)O[C@@H]1/C=C/[C@](C)(O)C[C@@H](C)C/C=C/[C@H]2C=C(C)[C@@H](C)[C@H]3[C@H](Cc4ccccc4)NC(=O)[C@]321	12.3	11.1			Dose-dependent-effect	Dose-dependent-effect							Active	Active	
CC1=C[C@@H]2[C@@H]3[C@H](/C=C(/C)C[C@@H](C)C[C@H]3O)[C@@H](O)[C@]23C(=O)N[C@@H](Cc2ccccc2)[C@@H]3[C@@H]1C	> 50	45.2			Dose-dependent-effect	Dose-dependent-effect					Active				Active
CC1=C[C@@H]2[C@@H](C[C@H](C)C1)[C@@H](O)[C@H]1C=C(C)[C@@H](C)[C@H]3[C@H](Cc4ccccc4)NC(=O)[C@]31[C@@H]2O	> 50	47.3			Dose-dependent-effect	Dose-dependent-effect					Active				Active
